According to patent US10080365B2, “Use of strobilurin type compounds for combating phytopathogenic fungi resistant to Qo inhibitors” (BASF SE, priority 2011, dated 2018):

Columns and labels:
Septoria tritici [1] = experiment: Field Trial 2: efficacy against Septoria tritici on winter wheat (Limburgerhof); format: in vivo, Septoria tritici on winter wheat (cv. Riband); details: 200 g a.i./ha; for Disease (%) 19 DAA: applied at GS 33 and 26 days later at GS 39, natural infection, 19 days after last treatment; for Disease (%) 34 DAA: applied at GS 33 and GS 39, 34 days after last treatment; for antifungal activity against Qo inhibitor-resistant Septoria tritici, in words: commercial dose level
Experimental: (§1) Compound I-6 was used as 50 g/l EC formulation. Pyraclostrobin was used as commercial product HEADLINE.
This trial was conducted under field conditions in Limburgerhof, Rhineland-Palatinate, Germany. Seeds of winter wheat (cv. Riband) were planted and grown under standard conditions with adequate supply of water and nutrients. At growing stage GS 33 (Apr. 8, 2011), a first compound treatment (200 g a.i per ha) was made with a water volume of 400 L/ha, which was repeated 26 days later at growing stage GS 39. No further fungicide treatments were applied. Infection with fungal pathogens (e.g. Septoria tritici) occurred naturally. The evaluation of the disease incidences for Septoria tritici 19 and 34 days after the last treatment (DAA) are shown in Table IV. In the last row, the evaluation of the percentage of Qo inhibitor-resistant Septoria tritici isolates with the G143A mutation after the treatments is given.

[2] = tested on: Septoria tritici isolates containing the G143A in the cytochrome b gene; experiment: Glass house Trial 3: control of leaf blotch on wheat caused by two Septoria tritici isolates containing G143A; format: in vivo; details: % diseased leaf area after about 28 days
Experimental: The spray solutions were prepared in several steps:
The stock solution was prepared as follows: 1.26 ml of a 1:1 mixture of cyclohexanone and dimethylsulfoxide was added to 8.4 mg of active ingredient. Next, 40.74 ml of a mixture of water, acetone (10%), the emulsifier Wettol (0.1%) and the wetting agent Silwet (0.05%) was added. This stock solution was then further diluted with the described solvent-emulsifier-water mixture to the desired concentrations.
Trial 3: Control of Leaf Blotch on Wheat Caused by Caused by Two Septoria tritici Isolates Containing the G143A in the Cytochrome b Gene for their Cytochrome Bc1 Complex
Wheat plants were grown in pots. These plants were sprayed to run-off with an aqueous suspension, containing the desired concentration of active ingredient. The next day, the treated plants were inoculated with an aqueous suspension of Septoria tritici. After inoculation, the trial plants were covered with a lid and immediately transferred to a chamber with a relative humidity of about 83 to 85% and 19.5 to 20° C. After 4 days the lid was removed. Altogether, the trial plants were cultivated for about 28 days in that greenhouse chamber. The extent of fungal attack on the leaves was then visually assessed as % diseased leaf area.

[3] = tested on: Septoria tritici (Qo-inhibitor sensitive, wild-type); experiment: Microtiter test, Septoria tritici Qo-inhibitor sensitive wild-type (Use Example 1); format: cell-based; details: Zymoseptoria tritici, turbidity at 620 nm, read-out: Sensitive Septoria tritici isolate (wild type) (S-IC50)
Experimental: (§2) The active substances were formulated separately as a stock solution in dimethyl sulfoxide (DMSO) at a concentration of 10 000 ppm.
(§3) Activity against the Septoria blotch pathogen caused by Septoria tritici in the microtiter test
(§4) Fungal strains used: • a) Septoria tritici (Qo-inhibitor sensitive, wild-type) • b) Septoria tritici (Qo-inhibitor-resistant, G143A mutant)
(§5) 100 ml 2% Malt extract in water at pH6.8 were inoculated with microspores from 2 week old cultures grown on 2% malt extract+2% agar in Petri dishes and incubated for 3 days on a rotary shaker at 24° C. und 150 rpm. The culture was harvested, glycerol was added (15% (v/v) and kept frozen at −20° C. in aliquots of 1 ml.
(§6) 1 ml stock suspension was thawed and suspended into 800 ml of 2% malt extract in water at pH 6.8. Compounds were diluted from stock solution in (dimethylsulfoxide) DMSO in 10 steps. The compound solutions were diluted 1/5 with sterile deionized water before use. 5 μl of the compound solutions were transferred into empty microplates. The plates were then filled with 195 μl of the microspore suspension of each strain.
(§7) The antifungal activity was determined by measuring the turbidity of a culture in 96-well microplates in the presence of test compounds. Fungal growth was measured by recording the optical density at 620 nm every 15 h for 150 h. The relative antifungal activity was calculated by comparison of the effect of the test compounds with the effect of a DMSO control and a standard fungicide.
(§8) IC50-values (concentration of test compound resulting in 50% inhibition of fungal growth) were calculated from the resulting dose-response for each compound and strain. The initial concentration of the test compounds and the 10 steps of dilution (1:4 each) allowed IC50-values from 0.001 to 100 μmol/l (μM) to be assessed.

Septoria tritici [4] = experiment: Field Trial 1: efficacy against Septoria tritici on winter wheat (Böhl-Iggelheim); format: in vivo, Septoria tritici on winter wheat (cv. Riband); details: 200 g a.i./ha; for Disease (%) 20 DAA: applied at GS 32 and 21 days later at GS 39, natural infection, 20 days after last treatment; for Disease (%) 33 DAA: applied at GS 32 and GS 39, 33 days after last treatment; for Disease (%) 46 DAA: applied at GS 32 and GS 39, 46 days after last treatment; for control of Qo inhibitor-resistant Septoria tritici isolates, in words: commercial dose level
Experimental: as §1
The trial was conducted under field conditions in Böhl-Iggelheim, Rhineland-palatinate, Germany. Seeds of winter wheat (cv. Riband) were planted and grown under standard conditions with adequate supply of water and nutrients. At growing stage GS 32 (Apr. 14, 2011), a first compound treatment (200 g a.i. per ha) was made with a water volume of 400 L/ha, which was repeated 21 days later at growing stage GS 39. No further fungicide treatments were applied. Infection with fungal pathogens (e.g. Septoria tritici) occurred naturally. The evaluation of the disease incidences for Septoria tritici 20, 33 and 46 days after the last treatment (DAA) are shown in table Ill. In the last row, the evaluation of the percentage of Qo inhibitor-resistant Septoria tritici isolates with the G143A mutation after the treatments is given.

[5] = tested on: Septoria tritici (Qo-inhibitor-resistant, G143A mutant); experiment: Microtiter test, Septoria tritici Qo-inhibitor-resistant G143A mutant (Use Example 1); format: cell-based; details: for IC50: Zymoseptoria tritici, read-out: Resistant Septoria tritici isolate (G143A mutation) (R-IC50)
Experimental: as §2, §3, §4, §5, §6, §7, §8

[6] = Resistant Septoria tritici isolate 1 (G143A mutation), 12.5 ppm
[7] = Resistant Septoria tritici isolate 1 (G143A mutation), 25 ppm
[8] = Resistant Septoria tritici isolate 1 (G143A mutation), 50 ppm
[9] = Resistant Septoria tritici isolate 1 (G143A mutation), 100 ppm
[10] = Resistant Septoria tritici isolate 1 (G143A mutation), 200 ppm
[11] = Resistant Septoria tritici isolate 2 (G143A mutation), 12.5 ppm
[12] = Resistant Septoria tritici isolate 2 (G143A mutation), 25 ppm
[13] = Resistant Septoria tritici isolate 2 (G143A mutation), 50 ppm
[14] = Resistant Septoria tritici isolate 2 (G143A mutation), 100 ppm
[15] = Resistant Septoria tritici isolate 2 (G143A mutation), 200 ppm

Compound | Disease (%) 19 DAA (Septoria tritici [1]) [%] | Disease (%) 34 DAA (Septoria tritici [1]) [%] | antifungal activity against Qo inhibitor-resistant Septoria tritici, in words (Septoria tritici [1]) | Disease level (%) [2, 6] [%] | Disease level (%) [2, 7] [%] | Disease level (%) [2, 8] [%] | Disease level (%) [2, 9] [%] | Disease level (%) [2, 10] [%] | Disease level (%) [2, 11] [%] | Disease level (%) [2, 12] [%] | Disease level (%) [2, 13] [%] | Disease level (%) [2, 14] [%] | Disease level (%) [2, 15] [%] | IC50 [3] [nM] | Disease (%) 20 DAA (Septoria tritici [4]) [%] | Disease (%) 33 DAA (Septoria tritici [4]) [%] | Disease (%) 46 DAA (Septoria tritici [4]) [%] | control of Qo inhibitor-resistant Septoria tritici isolates, in words (Septoria tritici [4]) | IC50 [5] [nM] | Resistance factor RF = R-IC50/S-IC50 [5]
CNC(=O)C(=N/OC)/C(C)=C\COc1ccn(-c2ccc(Cl)cc2)n1 [Compound I-6, (Z)-5-[1-(4-Chloro-phenyl)-1H-pyrazol-3-yloxy]-2-[(E)-methoxyimino]-3-methyl-pent-3-enic acid methyl amide] | 3 | 12 | capable to reduce the infection | 50 | 10 | 3 | 3 | 1 | 20 | 15 | 3 | 3 | 0 | 340 | 1 | 6 | 36 | capable to control | 8300 | 24
COC(=O)N(OC)c1ccccc1COc1ccn(-c2ccc(Cl)cc2)n1 [Pyraclostrobin, reference compound] | 5 | 28 | only slightly above the untreated control | 100 | 100 | 100 | 90 | 30 | 60 | 60 | 40 | 25 | 15 | 1.2 | 8 | 32 | 93 | insufficient control level | 3400 | 2882
